Assay results taken from paper PMC11995724, “Antibiotic target discovery by integrated phenotypic and activity-based profiling of electrophilic fragments” (Cell chemical biology, 2025).

test: in vitro; conditions: human, hek293t cells

**Q.** Which viability at 48 h, 25 µM does the source give for `Cc1cc(C)c(NC(=O)C(C#N)=Cc2ccc(C)o2)c(C)c1` [9-I17, 2-cyano-3-(5-methylfuran-2-yl)-N-(2,4,6-trimethylphenyl)prop-2-enamide] here?
**A.** 94.3%

**Q.** Which viability at 48 h, 25 µM does the source give for `C=CC(=O)Nc1c(C)ccc(Cl)c1CO` [1-O03, N-[3-chloro-2-(hydroxymethyl)-6-methylphenyl]prop-2-enamide] here?
**A.** 67.5%

**Q.** For `N#Cc1nc(-c2ccco2)oc1N1CCN(C(=O)CCl)CC1` [4-B22, 5-[4-(2-chloroacetyl)piperazin-1-yl]-2-(furan-2-yl)-1,3-oxazole-4-carbonitrile], which viability at 48 h, 25 µM is on record?
**A.** 0.503%

**Q.** For `C=CC(=O)NC(C)C1(S(C)(=O)=O)CC1` (centres unmarked) [2-P05, N-[1-(1-methanesulfonylcyclopropyl)ethyl]prop-2-enamide], which viability at 48 h, 25 µM is on record?
**A.** 84.3%

**Q.** With `C=CC(=O)Nc1cc(S(=O)(=O)N2CCCCCC2)ccc1OC` [1-A15, N-[5-(azepane-1-sulfonyl)-2-methoxyphenyl]prop-2-enamide] as the molecule, how does the viability at 48 h, 25 µM read?
**A.** 1.58%

**Q.** Which viability at 48 h, 25 µM does the source give for `Cc1cccc(NC(=O)C(C#N)=Cc2cc(C)c(C)cc2C)c1` [8-C18, 2-cyano-N-(3-methylphenyl)-3-(2,4,5-trimethylphenyl)prop-2-enamide] here?
**A.** 92.9%

**Q.** With `Cc1ccc(SCCNC(=O)CCl)cc1` [4-K21, 2-chloro-N-{2-[(4-methylphenyl)sulfanyl]ethyl}acetamide] as the molecule, how does the viability at 48 h, 25 µM read?
**A.** 1.65%

**Q.** For `COc1cc(NC(=O)CCl)cc(OC)c1OC` [4-N12, 2-chloro-N-(3,4,5-trimethoxyphenyl)acetamide], which viability at 48 h, 25 µM is on record?
**A.** 1.27%

**Q.** With `Cc1cc(C)n(CCCNC(=O)C(C)Cl)n1` (centres unmarked) [7-O19, 2-chloro-N-[3-(3,5-dimethyl-1H-pyrazol-1-yl)propyl]propanamide] as the molecule, how does the viability at 48 h, 25 µM read?
**A.** 78.1%

**Q.** For `Cc1ccc(S(=O)(=O)N2CCSSCC2)c(F)c1` [10-L09, 5-(2-fluoro-4-methylbenzenesulfonyl)-1,2,5-dithiazepane], which viability at 48 h, 25 µM is on record?
**A.** 92.2%

**Q.** With `Cc1cccc(C=C(C#N)C(=O)Nc2ccc(C(=O)O)cc2)c1` [8-M21, 4-[2-cyano-3-(3-methylphenyl)prop-2-enamido]benzoic acid] as the molecule, how does the viability at 48 h, 25 µM read?
**A.** 91.6%

**Q.** With `COc1ccc(NC(=O)C(C)Cl)cc1OC` (centres unmarked) [6-F12, 2-chloro-N-(3,4-dimethoxyphenyl)propanamide] as the molecule, how does the viability at 48 h, 25 µM read?
**A.** 109%

**Q.** For `C=CC(=O)N1CCC(C(=O)NCCn2c(=O)[nH]c3ccccc32)CC1` [3-J03, N-[2-(2-oxo-2,3-dihydro-1H-1,3-benzodiazol-1-yl)ethyl]-1-(prop-2-enoyl)piperidine-4-carboxamide], which viability at 48 h, 25 µM is on record?
**A.** 72.2%

**Q.** Which viability at 48 h, 25 µM does the source give for `C=CC(=O)Nc1cc(OC)cc(S(C)(=O)=O)c1` [1-H16, N-(3-methanesulfonyl-5-methoxyphenyl)prop-2-enamide] here?
**A.** 84.1%

**Q.** Which viability at 48 h, 25 µM does the source give for `CC1=C(C#N)C(=O)N(C)C(=O)C1=Cc1ccc(-c2ccc(F)cc2)o1` [9-I18, 5-{[5-(4-fluorophenyl)furan-2-yl]methylidene}-1,4-dimethyl-2,6-dioxo-1,2,5,6-tetrahydropyridine-3-carbonitrile] here?
**A.** 125%

**Q.** Which viability at 48 h, 25 µM does the source give for `C=CC(=O)NC1CCS(=O)(=O)C(C)C1` (centres unmarked) [3-A10, N-(2-methyl-1,1-dioxo-1lambda6-thian-4-yl)prop-2-enamide] here?
**A.** 68.8%

**Q.** Which viability at 48 h, 25 µM does the source give for `CC(Cl)C(=O)N1CCC(c2nc3cc(F)ccc3s2)CC1` (centres unmarked) [6-J18, 2-chloro-1-[4-(5-fluoro-1,3-benzothiazol-2-yl)piperidin-1-yl]propan-1-one] here?
**A.** 78.9%

**Q.** Which viability at 48 h, 25 µM does the source give for `C=CC(=O)NCCc1nc(C)no1` [3-N19, N-[2-(3-methyl-1,2,4-oxadiazol-5-yl)ethyl]prop-2-enamide] here?
**A.** 74.2%

**Q.** Which viability at 48 h, 25 µM does the source give for `C=CC(=O)NCC1(C)CCS(=O)(=O)CC1` [1-G16, N-[(4-methyl-1,1-dioxo-1lambda6-thian-4-yl)methyl]prop-2-enamide] here?
**A.** 83.1%

**Q.** For `N#CC(=Cc1cccc(Cl)c1)C(=O)NCc1ccccc1` [9-L13, N-benzyl-3-(3-chlorophenyl)-2-cyanoprop-2-enamide], which viability at 48 h, 25 µM is on record?
**A.** 39.5%

**Q.** For `N#CC(=Cc1cccnc1)C(=O)NCc1ccccc1` [9-I14, N-benzyl-2-cyano-3-(pyridin-3-yl)prop-2-enamide], which viability at 48 h, 25 µM is on record?
**A.** 113%

**Q.** For `N#CC(=Cc1cnc2ccccn12)C(=O)NCc1ccccc1` [9-P18, N-benzyl-2-cyano-3-{imidazo[1,2-a]pyridin-3-yl}prop-2-enamide], which viability at 48 h, 25 µM is on record?
**A.** 127%

**Q.** With `COc1ccc(C=C(C#N)C(=O)Nc2nccs2)cc1O` [8-G19, 2-cyano-3-(3-hydroxy-4-methoxyphenyl)-N-(1,3-thiazol-2-yl)prop-2-enamide] as the molecule, how does the viability at 48 h, 25 µM read?
**A.** 85%

**Q.** With `N#CC(=Cc1cccnc1)C(=O)Nc1ccc(F)cc1` [8-B21, 2-cyano-N-(4-fluorophenyl)-3-(pyridin-3-yl)prop-2-enamide] as the molecule, how does the viability at 48 h, 25 µM read?
**A.** 125%

**Q.** With `O=C(CCl)N1CCCSc2ccccc21` [4-E16, 2-chloro-1-(2,3,4,5-tetrahydro-1,5-benzothiazepin-5-yl)ethan-1-one] as the molecule, how does the viability at 48 h, 25 µM read?
**A.** 0.703%

**Q.** Which viability at 48 h, 25 µM does the source give for `COc1ccc(N(Cc2cccs2)C(=O)CCl)cc1` [5-O17, 2-chloro-N-(4-methoxyphenyl)-N-[(thiophen-2-yl)methyl]acetamide] here?
**A.** 0.692%

**Q.** For `CC(C)C1C(=O)Nc2ccc(Cl)cc2N1C(=O)CCl` (centres unmarked) [5-C11, 6-chloro-4-(2-chloroacetyl)-3-(propan-2-yl)-1,2,3,4-tetrahydroquinoxalin-2-one], which viability at 48 h, 25 µM is on record?
**A.** -0.0252%

**Q.** With `Cc1ccc(C=C(C#N)C(=O)NC(C)C)s1` [9-O11, 2-cyano-3-(5-methylthiophen-2-yl)-N-(propan-2-yl)prop-2-enamide] as the molecule, how does the viability at 48 h, 25 µM read?
**A.** 139%

**Q.** For `N#CC(=Cc1cc(F)ccc1F)C(=O)Nc1ccc2c(c1)OCCO2` [8-I10, 2-cyano-3-(2,5-difluorophenyl)-N-(2,3-dihydro-1,4-benzodioxin-6-yl)prop-2-enamide], which viability at 48 h, 25 µM is on record?
**A.** 53.5%

**Q.** Which viability at 48 h, 25 µM does the source give for `N#CC(=Cc1ccc(O)c([N+](=O)[O-])c1)C(=O)Nc1ccccc1C(=O)O` [9-G10, 2-[2-cyano-3-(4-hydroxy-3-nitrophenyl)prop-2-enamido]benzoic acid] here?
**A.** 118%

**Q.** With `COc1ccc(NC(=O)C(C#N)=Cc2cccc(Cl)c2Cl)cc1` [8-N04, 2-cyano-3-(2,3-dichlorophenyl)-N-(4-methoxyphenyl)prop-2-enamide] as the molecule, how does the viability at 48 h, 25 µM read?
**A.** 74.8%

**Q.** For `Cc1ccc(F)c(S(=O)(=O)NCCNC(=O)CCl)c1` [7-P12, 2-chloro-N-[2-(2-fluoro-5-methylbenzenesulfonamido)ethyl]acetamide], which viability at 48 h, 25 µM is on record?
**A.** 1.05%

**Q.** Which viability at 48 h, 25 µM does the source give for `Cc1ccc(C=C(C#N)C(=O)Nc2ccccc2C(F)(F)F)cc1` [8-E16, 2-cyano-3-(4-methylphenyl)-N-[2-(trifluoromethyl)phenyl]prop-2-enamide] here?
**A.** 96.3%

**Q.** For `O=C(CCl)c1c(-c2ccccc2)[nH]c2ccccc12` [10-E05, 2-chloro-1-(2-phenyl-1H-indol-3-yl)ethan-1-one], which viability at 48 h, 25 µM is on record?
**A.** 14.1%

**Q.** Which viability at 48 h, 25 µM does the source give for `O=C(CCl)Nc1cccc(OCc2ccccc2)c1` [5-I04, N-[3-(benzyloxy)phenyl]-2-chloroacetamide] here?
**A.** 0.885%

**Q.** For `C=CC(=O)N1CCCC1c1cn(C)nc1C` (centres unmarked) [3-M09, 1-[2-(1,3-dimethyl-1H-pyrazol-4-yl)pyrrolidin-1-yl]prop-2-en-1-one], which viability at 48 h, 25 µM is on record?
**A.** 50.9%

**Q.** Which viability at 48 h, 25 µM does the source give for `CC1=C(c2ccco2)CN(C(=O)C(C)Cl)CC1` (centres unmarked) [6-D15, 2-chloro-1-[5-(furan-2-yl)-4-methyl-1,2,3,6-tetrahydropyridin-1-yl]propan-1-one] here?
**A.** 103%

**Q.** For `COc1ccccc1NC(=O)c1ccc(NC(=O)CCl)cc1` [4-O17, 4-(2-chloroacetamido)-N-(2-methoxyphenyl)benzamide], which viability at 48 h, 25 µM is on record?
**A.** -0.113%
